For ten compounds, IC50 results are on record in ChEMBL document CHEMBL2375352, “Spirostanoids with 1,4-dien-3-one or 3β,7α-diol-5,6-ene moieties from Solanum violaceum” (Bioorg Med Chem Lett, 2013).

For one assay, the system named is MDA-MB-231. The experiment in a line: Cytotoxicity against human MDA-MB-231 cells. It counts as functional, cell-based.
The test system of another assay is A549. The experiment in a line: Cytotoxicity against human A549 cells. The class given is functional, cell-based.
For a further assay, the system named is MCF7. The assay can be described thus: Cytotoxicity against human MCF7 cells. The class given is functional, cell-based.
A short description of assay [1]: Cytotoxicity against human Hep3B cells. The class given is functional, cell-based, Hep 3B2.
The test system of the next assay is HepG2. The assay can be described thus: Cytotoxicity against human HepG2 cells. The class given is functional, cell-based.

Values after ≈ are worked out from the molar mass of the structure shown.

The IC50 is the concentration at which inhibition is half-maximal. `CC[C@H](/C=C/[C@@H](C)[C@H]1CC[C@H]2[C@@H]3C(=O)C=C4C[C@@H](O)CC[C@]4(C)[C@H]3CC[C@]12C)C(C)C`: the IC50 (in the assay with MDA-MB-231; in the assay with A549; with MCF7; in assay [1]; in the assay with HepG2) was more than 20 µg/mL in each case.
In the case of `CC[C@H](CC[C@@H](C)[C@H]1CC[C@H]2[C@@H]3C(=O)C=C4C[C@@H](O)CC[C@]4(C)[C@H]3CC[C@]12C)C(C)C`, the IC50 (in the assay with MDA-MB-231; in the assay with A549; in the assay with MCF7; in assay [1]; in the assay with HepG2) was more than 20 µg/mL throughout.
On to `C[C@H]1CC[C@@]2(OC1)O[C@H]1C[C@H]3[C@@H]4CC=C5C[C@@H](O)CC[C@]5(C)[C@H]4CC[C@]3(C)[C@H]1[C@@H]2C`, for which the IC50 (with MDA-MB-231; in the assay on A549; in the assay with MCF7; in assay [1]; with HepG2) was more than 20 µg/mL in each case.
As to `CC(C)[C@@H](C)/C=C/[C@@H](C)[C@H]1CC[C@@H]2[C@]1(C)CC=C1[C@]23C=C[C@]2(C[C@@H](O)CC[C@]12C)OO3`, the 50% inhibitory concentration (IC50) was 7.32 µg/mL (≈ 17.2 µM) in the assay on MDA-MB-231; 10.4 µg/mL (≈ 24.3 µM) in the assay on A549; 9.18 µg/mL (≈ 21.5 µM) in the assay on MCF7; 15.5 µg/mL (≈ 36.4 µM) in assay [1]; 7.73 µg/mL (≈ 18.1 µM) in the assay with HepG2.
For the compound `C[C@@H]1CC[C@@]2(OC1)O[C@H]1C[C@H]3[C@@H]4CCC5=CC(=O)CC[C@]5(C)[C@H]4CC[C@]3(C)[C@H]1[C@@H]2C` [DIOSGENONE], the IC50 is more than 20 µg/mL in the assay on MDA-MB-231; more than 20 µg/mL in the assay on A549; more than 20 µg/mL in the assay on MCF7; more than 20 µg/mL in assay [1]; 13.4 µg/mL (≈ 32.6 µM) in the assay on HepG2.
On to `C[C@@H]1CC[C@@]2(OC1)O[C@H]1C[C@H]3[C@@H]4CC=C5C[C@@H](O)CC[C@]5(C)[C@H]4CC[C@]3(C)[C@H]1[C@@H]2C` [DISOGENIN], for which the IC50 (in the assay on MDA-MB-231; in the assay with A549; in the assay with MCF7; in assay [1]; in the assay with HepG2) was more than 20 µg/mL in each case.
With `COc1cccc2c1C(=O)c1c(O)c3c(c(O)c1C2=O)C[C@@](O)(C(=O)CO)C[C@@H]3O[C@H]1C[C@H](N)[C@H](O)[C@H](C)O1` [DOXORUBICIN], the IC50 in the assay with MDA-MB-231 worked out at 0.38 µg/mL (≈ 0.699 µM); in the assay on MCF7, 0.29 µg/mL (≈ 0.534 µM); in assay [1] it was 0.24 µg/mL (≈ 0.442 µM); in the assay with HepG2 it was 0.4 µg/mL (≈ 0.736 µM).
`CC(C)[C@@H](C)/C=C/[C@@H](C)[C@H]1CC[C@@H]2[C@]1(C)CC[C@H]1[C@]23C=C[C@]2(C[C@@H](O)CC[C@]12C)OO3` [ERGOSTEROL PEROXIDE]: the IC50 came to 16.7 µg/mL (≈ 39.1 µM) with MDA-MB-231; 14.3 µg/mL (≈ 33.4 µM) in the assay on A549; 13.4 µg/mL (≈ 31.3 µM) in the assay on MCF7; 16.5 µg/mL (≈ 38.5 µM) in assay [1]; 15.3 µg/mL (≈ 35.6 µM) in the assay with HepG2.
As for `COc1cc2ccc(=O)oc2cc1O` [SCOPOLETIN], the IC50 in the assay with MDA-MB-231 was more than 20 µg/mL; in the assay on A549, more than 20 µg/mL; with MCF7 it was 17.1 µg/mL (≈ 89 µM); in assay [1], more than 13.2 µg/mL; in the assay with HepG2, more than 20 µg/mL.
Take `COc1cc([C@H]2OC[C@H]3[C@@H]2CO[C@@H]3c2cc(OC)c(O)c(OC)c2)cc(OC)c1O` [SYRINGARESINOL]: the half-maximal inhibitory concentration (IC50) is more than 20 µg/mL in the assay on MDA-MB-231; more than 20 µg/mL in the assay on A549; more than 20 µg/mL in the assay on MCF7; 15.7 µg/mL (≈ 37.6 µM) in assay [1]; more than 20 µg/mL with HepG2.
